Results: publication PMC7170861, “The TIPE Molecular Pilot That Directs Lymphocyte Migration in Health and Inflammation” (Scientific Reports, 2020)

How the values were obtained:
Assay in all cases: SPR, lipid vesicles on L1 chip, steady-state fit
Conditions in all cases: 10% (mole/mole) lipid in DOPC vesicles; HBS pH 7.4; 25 °C
TNFAIP8 = target: T1, TNFAIP8 (Mus musculus, UniProt Q921Z5); format: binding
T1 construct: isoform 1; pET-SUMO, N-terminal 6His-SUMO tag cleaved off by SUMO protease; E. coli BL21(DE3); untagged native protein
T1 sequence (Q921Z5 1-198): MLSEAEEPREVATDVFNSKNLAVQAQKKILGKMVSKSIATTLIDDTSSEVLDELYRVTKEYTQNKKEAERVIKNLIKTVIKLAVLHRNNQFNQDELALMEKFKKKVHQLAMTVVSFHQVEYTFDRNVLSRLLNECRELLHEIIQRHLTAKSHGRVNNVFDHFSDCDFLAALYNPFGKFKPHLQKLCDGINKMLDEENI

GRP1-PH = target: T2, GRP1-PH
T2 construct: gene CYTH3; N-terminal 6His-SUMO tag cleaved off; E. coli BL21(DE3)
From the text: SPR, lipid vesicles on L1 chip, steady-state fit on GRP1-PH | Purified PLCδ-PH and GRP1-PH domains were used as positive controls

PLCδ-PH = target: T3, PLCδ-PH
T3 construct: gene PLCD1; N-terminal 6His-SUMO tag cleaved off; E. coli BL21(DE3)
From the text: SPR, lipid vesicles on L1 chip, steady-state fit on PLCδ-PH | Purified PLCδ-PH and GRP1-PH domains were used as positive controls

Row | Substance | Kd (TNFAIP8) | Kd (GRP1-PH) | Kd (PLCδ-PH)
1 | PtdIns(3,4,5)P3 | 4.06 µM | 0.98 ± 0.69 µM | –
2 | PtdIns(4,5)P2 | 3.16 µM | – | 2.1 ± 1.55 µM
